For assay [1], the system named is sub-genomic HCV NS3-NS5B replicon of genotype 1a in Huh-7 cells. The assay is described as follows: Replicon Luciferase Cell Based Assay, genotype 1a. The arrangement: species or system HCV genotype 1a. As to conditions: Hepatitis C virus, Huh-7, 48 hours. How it is done: (§1) A 10 mM stock solution in DMSO of each test compound was further diluted in DMSO in the first row of a 384-well, V-bottom microplate, to give 100 times the top concentration of the required dilution series. Dilutions of compound were prepared in 1:3 serial dilutions from the first row onwards robotically. A robot was also used to transfer 0.5 μL volumes from each dilution well into wells of white 384-well assay plates (Nunc #164610). Control wells received 0.5 μL of DMSO alone. Plates were made in duplicate for measuring HCV replication and cytotoxicity in the replicon cell lines.
(§2) Suspensions were prepared from cultures of Huh-7 cells stably transfected with sub-genomic HCV NS3—NS5B replicons of either genotype 1b (the ET subline described by Pietschmann, T., Lohmann, V., Kaul, A., Krieger, N., Rinck, G., Rutter, G., Strand, D. & Bartenschlager, R., Journal of Virology, 2002, 76, 4008-4021) or genotype 1a linked to a firefly luciferase reporter gene. Monolayers nearing confluency were stripped from growth flasks with versene-trypsin solution and the cells re-suspended in assay medium comprising DMEM (Invitrogen #11965-092) supplemented with 5% v/v foetal calf serum, 1% v/v non-essential amino acids solution, 100 units/ml penicillin, 100 μg/ml streptomycin and 2 mM GlutaMAX-1. 50 μL of suspension containing 5,000 cells of either genotype 1b or genotype 1a luciferase replicon were added to all wells, except medium controls, of the assay plate with a Multidrop Combi (Thermo Scientific Corporation) and the plate incubated for 48 hours at 37° C. in a 5% CO2 atmosphere. A solution of Steady-Glo cytolytic buffer/luciferase substrate (Promega #E2550) was prepared according to the manufacturer's instructions, and 20 μL were added to each well with a Multidrop Combi. To measure cytotoxicity, a solution of CellTiter-Glo Luminescent Cell Viability Assay reagent (Promega #G7573) was prepared according to the manufacturer's instructions, and 20 ul were added to each well with a Multidrop Combi. The plates were then read for luminescence on an Envision Multilabel Reader (Perkin Elmer)
(§3) Potency: The luminescence values from all compound-free wells containing cells were averaged to obtain a positive control value. The mean luminescence value from the compound-free wells that had received no cells was used to provide the negative (background) control value. After the subtraction of the mean background from all values, the readings from wells at each compound concentration were expressed as a percentage of the positive control signal. The quantifiable and specific reduction of luciferase signal in the presence of a drug is a direct measure of replicon inhibition. The BioAssay application and XC50 module were used to plot the curve of percentage inhibition against compound concentration and derive the 50% inhibitory concentration (IC50) for the compound.

The test system of assay [2] is sub-genomic HCV NS3-NS5B replicon of genotype 1b (ET subline) in Huh-7 cells. The assay is described as follows: Replicon Luciferase Cell Based Assay, genotype 1b. The arrangement: species or system HCV genotype 1b. The settings on record: Hepatitis C virus, Huh-7, 48 h, read-out: Genotype 1b (IC50 μM). The procedure: as §1, §2, §3
In general terms: Replicon systems follow genome replication, usually without infectious particles.

One may read the IC50 as the concentration that inhibits the measured activity by half.

Regarding `COc1ccc2c(O[C@@H]3C[C@H]4C(=O)N[C@]5(C(=O)NS(=O)(=O)C6CC6)C[C@H]5/C=C\CCCCC[C@H](NC(=O)N5CCS(=O)(=O)CC5)C(=O)N4C3)cc(-c3nc(C(C)C)cs3)nc2c1C` [Example 12, (2R,6S,13aS,14aR,16aS)-N-(cyclopropylsulfonyl)-6-{[(1,1-dioxido-4-thiomorpholinyl)carbonyl]amino}-2-{[8-methyl-2-[4-(1-methylethyl)-1,3-thiazol-2-yl]-7-(methyloxy)-4-quinolinyl]oxy}-5,16-dioxo-1,2,3,6,7,8,9,10,11,13a,14,15,16,16a-tetradecahydrocyclopropa[e]pyrrolo[1,2-a][1,4]diazacyclopentadecine-14a(5H)-carboxamide], the IC50 in assay [1] and in assay [2] was < 0.01 µM throughout.

Consider `COc1ccc2c(O[C@@H]3C[C@H]4C(=O)N[C@]5(C(=O)NS(=O)(=O)C6CC6)C[C@H]5/C=C\CCCCC[C@H](NC(=O)N5CCN(C6CCCC6)CC5)C(=O)N4C3)cc(-c3nc(C(C)C)cs3)nc2c1C` [Example 13, (2R,6S,13aS,14aR,16aS)-6-{[(4-cyclopentyl-1-piperazinyl)carbonyl]amino}-N-(cyclopropylsulfonyl)-2-{[8-methyl-2-[4-(1-methylethyl)-1,3-thiazol-2-yl]-7-(methyloxy)-4-quinolinyl]oxy}-5,16-dioxo-1,2,3,6,7,8,9,10,11,13a,14,15,16,16a-tetradecahydrocyclopropa[e]pyrrolo[1,2-a][1,4]diazacyclopentadecine-14a(5H)-carboxamide], for which the IC50 in assay [1] and in assay [2] was < 0.01 µM in each case.

In the case of `COc1ccc2c(O[C@@H]3C[C@H]4C(=O)N[C@]5(C(=O)NS(=O)(=O)C6CC6)C[C@H]5/C=C\CCCCC[C@H](NC(=O)N5CCOCC5)C(=O)N4C3)cc(-c3nc(C(C)C)cs3)nc2c1C` [Example 14], the IC50 in assay [1] and in assay [2] was < 0.01 µM each time.

For the molecule `COc1ccc2c(O[C@@H]3C[C@H]4C(=O)N[C@]5(C(=O)NS(=O)(=O)C6CC6)C[C@H]5/C=C\CCCCC[C@H](NC(=O)N5CCCC5)C(=O)N4C3)cc(-c3nc(C(C)C)cs3)nc2c1C` [Example 15, (2R,6S,13aS,14aR,16aS)-N-(cyclopropylsulfonyl)-2-{[8-methyl-2-[4-(1-methylethyl)-1,3-thiazol-2-yl]-7-(methyloxy)-4-quinolinyl]oxy}-5,16-dioxo-6-[(1-pyrrolidinylcarbonyl)amino]-1,2,3,6,7,8,9,10,11,13a,14,15,16,16a-tetradecahydrocyclopropa[e]pyrrolo[1,2-a][1,4]diazacyclopentadecine-14a(5H)-carboxamide], the half-maximal inhibitory concentration (IC50) in assay [1] and in assay [2] was < 0.01 µM each time.

`CCN(C)C(=O)N[C@H]1CCCCC/C=C\[C@@H]2C[C@@]2(C(=O)NS(=O)(=O)C2CC2)NC(=O)[C@@H]2C[C@@H](Oc3cc(-c4nc(C(C)C)cs4)nc4c(C)c(OC)ccc34)CN2C1=O` [Example 17]: the IC50 in assay [1] and in assay [2] was < 0.01 µM each time.

Regarding `COc1ccc2c(O[C@@H]3C[C@H]4C(=O)N[C@]5(C(=O)NS(=O)(=O)C6CC6)C[C@H]5/C=C\CCCCC[C@H](NC(=O)N5CCC5)C(=O)N4C3)cc(-c3nc(C(C)C)cs3)nc2c1C` [Example 18, (2R,6S,13aS,14aR,16aS)-6-[(1-azetidinylcarbonyl)amino]-N-(cyclopropylsulfonyl)-2-{[8-methyl-2-[4-(1-methylethyl)-1,3-thiazol-2-yl]-7-(methyloxy)-4-quinolinyl]oxy}-5,16-dioxo-1,2,3,6,7,8,9,10,11,13a,14,15,16,16a-tetradecahydrocyclopropa[e]pyrrolo[1,2-a][1,4]diazacyclopentadecine-14a(5H)-carboxamide], the IC50 in assay [1] and in assay [2] was < 0.01 µM each time.

With `CCCN(CC1CC1)C(=O)N[C@H]1CCCCC/C=C\[C@@H]2C[C@@]2(C(=O)NS(=O)(=O)C2CC2)NC(=O)[C@@H]2C[C@@H](Oc3cc(-c4nc(C(C)C)cs4)nc4c(C)c(OC)ccc34)CN2C1=O` [Example 19, (2R,6S,13aS,14aR,16aS)-6-({[(cyclopropylmethyl)(propyl)amino]carbonyl}amino)-N-(cyclopropylsulfonyl)-2-{[8-methyl-2-[4-(1-methylethyl)-1,3-thiazol-2-yl]-7-(methyloxy)-4-quinolinyl]oxy}-5,16-dioxo-1,2,3,6,7,8,9,10,11,13a,14,15,16,16a-tetradecahydrocyclopropa[e]pyrrolo[1,2-a][1,4]diazacyclopentadecine-14a(5H)-carboxamide], the IC50 in assay [1] and in assay [2] was < 0.01 µM throughout.

Take `COc1ccc2c(O[C@@H]3C[C@H]4C(=O)N[C@]5(C(=O)NS(=O)(=O)C6CC6)C[C@H]5/C=C\CCCCC[C@H](NC(=O)N5CCC(c6ccccc6)CC5)C(=O)N4C3)cc(-c3nc(C(C)C)cs3)nc2c1C` [Example 20, (2R,6S,13aS,14aR,16aS)-N-(cyclopropylsulfonyl)-2-{[8-methyl-2-[4-(1-methylethyl)-1,3-thiazol-2-yl]-7-(methyloxy)-4-quinolinyl]oxy}-5,16-dioxo-6-{[(4-phenyl-1-piperidinyl)carbonyl]amino}-1,2,3,6,7,8,9,10,11,13a,14,15,16,16a-tetradecahydrocyclopropa[e]pyrrolo[1,2-a][1,4]diazacyclopentadecine-14a(5H)-carboxamide]: the IC50 in assay [1] and in assay [2] was < 0.01 µM in each case.

For `COc1ccc2c(O[C@@H]3C[C@H]4C(=O)N[C@]5(C(=O)NS(=O)(=O)C6CC6)C[C@H]5/C=C\CCCCC[C@H](NC(=O)N5CCC(N6CCCC6)CC5)C(=O)N4C3)cc(-c3nc(C(C)C)cs3)nc2c1C` [Example 21, (2R,6S,13aS,14aR,16aS)-N-(cyclopropylsulfonyl)-2-{[8-methyl-2-[4-(1-methylethyl)-1,3-thiazol-2-yl]-7-(methyloxy)-4-quinolinyl]oxy}-5,16-dioxo-6-({[4-(1-pyrrolidinyl)-1-piperidinyl]carbonyl}amino)-1,2,3,6,7,8,9,10,11,13a,14,15,16,16a-tetradecahydrocyclopropa[e]pyrrolo[1,2-a][1,4]diazacyclopentadecine-14a(5H)-carboxamide], the IC50 in assay [1] and in assay [2] was < 0.01 µM in each case.

As for `COc1ccc2c(O[C@@H]3C[C@H]4C(=O)N[C@]5(C(=O)NS(=O)(=O)C6CC6)C[C@H]5/C=C\CCCCC[C@H](NC(=O)N5CCC(O)CC5)C(=O)N4C3)cc(-c3nc(C(C)C)cs3)nc2c1C` [Example 22, (2R,6S,13aS,14aR,16aS)-N-(cyclopropylsulfonyl)-6-{[(4-hydroxy-1-piperidinyl)carbonyl]amino}-2-{[8-methyl-2-[4-(1-methylethyl)-1,3-thiazol-2-yl]-7-(methyloxy)-4-quinolinyl]oxy}-5,16-dioxo-1,2,3,6,7,8,9,10,11,13a,14,15,16 ,16a-tetradecahydrocyclopropa[e]pyrrolo[1,2-a][1,4]diazacyclopentadecine-14a(5H)-carboxamide], the 50% inhibitory concentration (IC50) in assay [1] and in assay [2] was < 0.01 µM throughout.

On to `COc1ccc2c(O[C@@H]3C[C@H]4C(=O)N[C@]5(C(=O)NS(=O)(=O)C6CC6)C[C@H]5/C=C\CCCCC[C@H](NC(=O)N5CCC(CC(N)=O)CC5)C(=O)N4C3)cc(-c3nc(C(C)C)cs3)nc2c1C` [Example 23, (2R,6S,13aS,14aR,16aS)-6-({[4-(2-amino-2-oxoethyl)-1-piperidinyl]carbonyl}amino)-N-(cyclopropylsulfonyl)2-{[8-methyl-2-[4-(1-methylethyl)-1,3-thiazol-2-yl]-7-(methyloxy)-4-quinolinyl]oxy}-5,16-dioxo-1,2,3,6,7,8,9,10,11,13a,14,15,16,16a-tetradecahydrocyclopropa[e]pyrrolo[1,2-a][1,4]diazacyclopentadecine-14a(5H)-carboxamide], for which the IC50 in assay [1] and in assay [2] was < 0.01 µM throughout.

Source of the values: patent US20100196321A1, “COMPOUNDS” (GLAXOSMITHKLINE LLC, priority 2009, published 2010).
